Key:
HAB-92 wt cells = assay: Boyden chamber transwell migration assay; type: cell-based, human; conditions: 1 μM, 24 h, statistically not significant
Experimental: (§1) HCT116, SW620, LS174T, SW480 and DLD-1 cells were used in cell migration and invasion analysis performed with Boyden chamber assay. 400 μL containing 2.5×10^5 cells were seeded into each transwell chamber with filter membranes of 12.0 μm pore size (Millipore, Schwalbach, Germany). For invasion filter membranes were coated with 50 μL Matrigel (diluted 1:3 in RPMI-1640; BD Biosciences) 10 minutes before cells were seeded. Fresh medium (600 μL) were added to the bottom chamber and cells were allowed to attach to the insets for 15 hours. Both chambers were treated with 1 μM niclosamide or the respective amount of DMSO and incubated at 37° C. and 5% CO2 in a humidified incubator for 24 hours. Afterwards insets were removed and cells that had migrated through the membrane to the lower chamber were trypsinized and counted in a Neubauer chamber (LO-Laboroptik, Bad Homburg, Germany). Each well was counted ten times. Each migration or invasion experiment was performed in duplicate. The average number of migrated or invaded cells was determined for at least three independent experiments.
(§2) For WNT pathway analysis the following cells were applied: HCT116 cells (heterozygous for gain-of-function-mutated CTNNB1; wt/mut), HAB-68mut cells (deletion mutant of HCT116, expressing only gain-of-function-mutated CTNNB1: −/mut) and HAB-92 wt cells (deletion mutant of HCT116, expressing only wild-type CTNNB1: wt/−). (A) CTNNB1 genotype dependent effect of niclosamide on LEF/TCF transcription factor reporter gene expression. Cells were treated with 1 μM niclosamide for 24 hours. Reporter gene expression was determined by luciferase activity measurement. For each condition and cell line TOPflash expression was normalized to FOPflash expression. (B) CTNNB1 genotype dependent effect of niclosamide on S100A4 expression. Cells were treated with 1 μM niclosamide for 24 hours. S100A4 expression was analyzed by qRT-PCR and immunoblot. (C) CTNNB1 genotype dependent effect of niclosamide on migration rates. Cells were treated with 1 μM niclosamide for 24 hours and cell migration was determined by Boyden chamber assay. Data represents mean±SE of at least three independent experiments. Differences were analyzed by Student's t test (n.s.; not statistically significant). (D) Nuclear localization of CTNNB1 under niclosamide treatment. Nuclear extracts of HCT116 cells treated with the indicated concentrations of niclosamide for 18 hours were analyzed by immunoblot. (E) Effect of niclosamide on CTNNB1/TCF complex. Nuclear extracts of HCT116 cells treated with the indicated concentrations of niclosamide for 18 hours were analyzed by EMSA for the TCF-binding site of the S100A4 promoter. Supershift was performed by addition of a monoclonal anti-CTNNB1 antibody. […]

HAB-68mut cells = assay: Boyden chamber transwell migration assay; type: cell-based, human; conditions: 1 μM, 24 h
Experimental: as §1, §2

`O=C(Nc1ccc([N+](=O)[O-])cc1Cl)c1cc(Cl)ccc1O` [niclosamide, 2′,5-dichloro-4′-nitrosalicylanilide] was tested, and the “migration rate, mean (relative to HCT116 control)” value (HAB-92 wt cells; control 0.36) was 0.32, the “migration rate, mean difference control vs niclosamide” value (HAB-92 wt cells) was 0.04 and the “migration rate, mean difference control vs niclosamide” value (HAB-68mut cells) was 0.91. For the same compound, the “migration rate, mean (relative to HCT116 control)” value (HAB-68mut cells; control 1.30) was 0.39.
